Results reported in ChEMBL document CHEMBL1649167, “Serial plasma voriconazole concentrations after allogeneic hematopoietic stem cell transplantation” (Antimicrob Agents Chemother, 2009).

Test: Plasma concentration in po dosed patient after 6 days by HPLC analysis
Format: ADME, organism-based
Conditions: human

C[C@@H](c1ncncc1F)[C@](O)(Cn1cncn1)c1ccc(F)cc1F [VORICONAZOLE]
concentration at 144 h: < 120 ng/mL
